Reference: patent publication US9636418B2 (priority 2013, dated 2017)
Read-outs that look alike come from different tables or passages of the source.

Columns and labels:
Experiment in all cases: cell-based
hNav1.7 = hNav1.7 (Homo sapiens, UniProt Q15858); format: cell-based; settings: PatchXpress, read-out: PX hNav1.7 Tonic IC50
hNav1.5 = hNav1.5 (Homo sapiens, UniProt Q14524); settings: for IC50: PatchXpress, read-out: PX hNav1.5 Tonic IC50
hNav1.4 = hNav1.4 (Homo sapiens, UniProt P35499); settings: for IC50: PatchXpress, read-out: PX hNav1.4 Tonic IC50
[1] = * = at high concentrations compound would wash off slowly or not at all

Sequence of hNav1.5 (Q14524 whole entry): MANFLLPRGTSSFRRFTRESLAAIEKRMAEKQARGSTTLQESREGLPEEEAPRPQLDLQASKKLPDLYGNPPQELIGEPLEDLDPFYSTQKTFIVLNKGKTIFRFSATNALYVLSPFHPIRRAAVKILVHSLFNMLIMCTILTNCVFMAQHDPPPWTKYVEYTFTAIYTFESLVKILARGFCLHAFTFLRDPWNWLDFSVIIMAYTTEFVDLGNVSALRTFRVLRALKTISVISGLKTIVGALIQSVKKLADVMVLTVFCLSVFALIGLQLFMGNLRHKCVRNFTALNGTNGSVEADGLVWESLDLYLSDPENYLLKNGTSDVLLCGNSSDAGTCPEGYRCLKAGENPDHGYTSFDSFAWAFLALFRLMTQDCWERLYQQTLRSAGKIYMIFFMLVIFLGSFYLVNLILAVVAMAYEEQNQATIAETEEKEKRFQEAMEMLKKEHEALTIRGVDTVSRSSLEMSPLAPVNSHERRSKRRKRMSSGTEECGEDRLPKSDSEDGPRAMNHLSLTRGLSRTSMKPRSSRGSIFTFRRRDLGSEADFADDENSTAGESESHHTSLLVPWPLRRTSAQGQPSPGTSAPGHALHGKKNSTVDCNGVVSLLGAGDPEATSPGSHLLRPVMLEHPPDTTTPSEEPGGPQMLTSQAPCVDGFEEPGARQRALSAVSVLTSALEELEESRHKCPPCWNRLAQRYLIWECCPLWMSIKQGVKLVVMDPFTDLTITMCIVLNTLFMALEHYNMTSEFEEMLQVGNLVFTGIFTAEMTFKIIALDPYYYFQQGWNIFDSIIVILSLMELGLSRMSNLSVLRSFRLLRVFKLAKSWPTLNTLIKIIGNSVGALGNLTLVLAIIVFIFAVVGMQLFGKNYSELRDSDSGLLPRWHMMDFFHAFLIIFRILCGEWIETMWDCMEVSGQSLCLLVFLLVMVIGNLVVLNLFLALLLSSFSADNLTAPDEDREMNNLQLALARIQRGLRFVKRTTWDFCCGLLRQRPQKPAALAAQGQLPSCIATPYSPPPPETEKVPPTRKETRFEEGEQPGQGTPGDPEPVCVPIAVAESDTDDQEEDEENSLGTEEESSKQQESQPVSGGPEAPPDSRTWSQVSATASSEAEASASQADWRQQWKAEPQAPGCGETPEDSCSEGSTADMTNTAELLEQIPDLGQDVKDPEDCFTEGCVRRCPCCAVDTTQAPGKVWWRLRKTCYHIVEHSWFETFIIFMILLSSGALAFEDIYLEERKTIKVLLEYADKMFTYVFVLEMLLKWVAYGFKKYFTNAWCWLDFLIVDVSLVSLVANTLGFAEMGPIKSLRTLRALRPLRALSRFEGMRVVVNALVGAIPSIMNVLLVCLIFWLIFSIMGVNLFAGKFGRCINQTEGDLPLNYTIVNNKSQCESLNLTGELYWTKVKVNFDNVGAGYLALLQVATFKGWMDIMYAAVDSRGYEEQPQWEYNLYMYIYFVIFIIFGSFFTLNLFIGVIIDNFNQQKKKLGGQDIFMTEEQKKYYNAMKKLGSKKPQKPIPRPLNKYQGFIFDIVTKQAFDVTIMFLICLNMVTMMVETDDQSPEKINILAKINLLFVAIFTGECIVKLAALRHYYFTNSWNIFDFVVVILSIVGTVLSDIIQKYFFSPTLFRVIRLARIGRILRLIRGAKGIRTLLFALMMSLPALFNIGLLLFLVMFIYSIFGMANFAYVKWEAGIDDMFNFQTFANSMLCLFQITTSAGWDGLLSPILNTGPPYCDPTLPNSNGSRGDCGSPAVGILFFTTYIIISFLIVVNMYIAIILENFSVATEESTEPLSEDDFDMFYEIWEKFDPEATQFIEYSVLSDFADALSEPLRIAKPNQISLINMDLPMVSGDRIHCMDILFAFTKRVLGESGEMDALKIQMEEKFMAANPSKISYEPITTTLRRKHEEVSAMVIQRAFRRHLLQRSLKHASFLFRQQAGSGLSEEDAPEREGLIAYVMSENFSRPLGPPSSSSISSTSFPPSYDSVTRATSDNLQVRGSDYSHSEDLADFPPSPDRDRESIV
Sequence of hNav1.7 (Q15858 whole entry): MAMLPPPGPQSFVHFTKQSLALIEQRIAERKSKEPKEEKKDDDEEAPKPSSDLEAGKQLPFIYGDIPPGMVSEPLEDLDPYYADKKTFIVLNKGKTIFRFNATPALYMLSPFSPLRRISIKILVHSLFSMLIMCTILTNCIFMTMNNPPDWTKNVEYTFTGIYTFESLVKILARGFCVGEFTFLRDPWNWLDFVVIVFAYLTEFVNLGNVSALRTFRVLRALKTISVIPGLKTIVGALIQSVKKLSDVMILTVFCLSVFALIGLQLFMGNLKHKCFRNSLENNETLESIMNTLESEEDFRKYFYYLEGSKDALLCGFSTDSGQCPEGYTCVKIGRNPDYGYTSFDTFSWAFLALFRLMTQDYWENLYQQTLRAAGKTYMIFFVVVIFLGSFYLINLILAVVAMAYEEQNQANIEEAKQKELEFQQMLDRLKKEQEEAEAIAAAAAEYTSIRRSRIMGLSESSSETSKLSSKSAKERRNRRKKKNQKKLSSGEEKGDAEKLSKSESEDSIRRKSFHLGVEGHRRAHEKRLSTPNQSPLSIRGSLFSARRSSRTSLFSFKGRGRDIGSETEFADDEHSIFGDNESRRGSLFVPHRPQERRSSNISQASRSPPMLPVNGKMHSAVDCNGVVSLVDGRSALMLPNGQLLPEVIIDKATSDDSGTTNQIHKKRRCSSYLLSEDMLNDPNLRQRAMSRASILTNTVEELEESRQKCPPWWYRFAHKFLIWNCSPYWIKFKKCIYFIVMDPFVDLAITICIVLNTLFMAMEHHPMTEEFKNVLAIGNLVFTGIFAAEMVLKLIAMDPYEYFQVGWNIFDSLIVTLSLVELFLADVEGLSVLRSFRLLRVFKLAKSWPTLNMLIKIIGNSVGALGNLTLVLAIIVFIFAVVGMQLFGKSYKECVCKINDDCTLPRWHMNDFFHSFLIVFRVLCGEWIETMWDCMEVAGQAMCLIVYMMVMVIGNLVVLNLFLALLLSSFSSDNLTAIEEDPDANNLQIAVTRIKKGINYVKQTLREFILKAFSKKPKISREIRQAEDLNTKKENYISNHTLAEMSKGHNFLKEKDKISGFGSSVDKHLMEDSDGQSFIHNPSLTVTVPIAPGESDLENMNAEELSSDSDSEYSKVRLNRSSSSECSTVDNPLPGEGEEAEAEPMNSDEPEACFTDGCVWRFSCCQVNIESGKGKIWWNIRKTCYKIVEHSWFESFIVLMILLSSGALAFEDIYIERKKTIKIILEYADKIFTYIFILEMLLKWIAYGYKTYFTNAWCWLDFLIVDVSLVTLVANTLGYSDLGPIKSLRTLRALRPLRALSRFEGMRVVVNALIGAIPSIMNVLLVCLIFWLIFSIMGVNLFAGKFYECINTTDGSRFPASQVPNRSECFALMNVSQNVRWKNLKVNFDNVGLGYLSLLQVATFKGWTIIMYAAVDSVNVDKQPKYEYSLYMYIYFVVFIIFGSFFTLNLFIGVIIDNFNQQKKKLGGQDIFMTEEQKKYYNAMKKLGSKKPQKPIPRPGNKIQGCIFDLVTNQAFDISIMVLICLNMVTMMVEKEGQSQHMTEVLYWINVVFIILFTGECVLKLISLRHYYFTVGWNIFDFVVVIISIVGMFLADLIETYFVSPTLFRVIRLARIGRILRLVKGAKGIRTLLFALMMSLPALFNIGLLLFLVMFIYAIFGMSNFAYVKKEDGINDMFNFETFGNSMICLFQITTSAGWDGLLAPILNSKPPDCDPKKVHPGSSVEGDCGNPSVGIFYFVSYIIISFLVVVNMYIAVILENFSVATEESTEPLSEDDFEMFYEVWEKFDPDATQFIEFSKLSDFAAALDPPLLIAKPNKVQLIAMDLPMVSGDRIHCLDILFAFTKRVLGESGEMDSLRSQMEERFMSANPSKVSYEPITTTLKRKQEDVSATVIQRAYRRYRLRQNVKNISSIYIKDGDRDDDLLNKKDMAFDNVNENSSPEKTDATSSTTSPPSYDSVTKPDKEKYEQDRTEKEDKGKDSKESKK

Compound | IC50 (hNav1.7; [1]) [nM] | IC50 (hNav1.5; [1]) [nM] | IC50 (hNav1.4; [1]) [nM] | Nav1.4/Nav1.7 (hNav1.4; ratio of PX IC50 values) | Nav1.5/Nav1.7 (hNav1.5; ratio of PX IC50 values) | IC50 (hNav1.7; tonic block) [nM] | IC50 (hNav1.5; tonic block) [nM] | IC50 (hNav1.4; tonic block) [nM] | Nav1.5/Nav1.7 (hNav1.5; ratio of PX tonic IC50 values) | Nav1.4/Nav1.7 (hNav1.4; ratio of PX tonic IC50 values)
CC[C@H](C)[C@H](NC(=O)[C@@H](NC(=O)[C@H](CCCCN)NC(=O)[C@H](CCCNC(=N)N)NC(=O)[C@@H]1CSSC[C@@H]2NC(=O)[C@H](C)NC(=O)[C@H](CCCNC(=N)N)NC(=O)[C@H](CCCCN)NC(=O)[C@H](CO)NC(=O)[C@H](CC(=O)O)NC(=O)[C@@H]3CSSC[C@H](NC(=O)[C@H](CCCNC(=N)N)NC(=O)[C@H](CC(C)C)NC(=O)CNC(=O)[C@H](CCC(=O)O)NC(=O)[C@H](CSSC[C@H](NC(=O)[C@@H](N)Cc4ccc(O)cc4)C(=O)N[C@@H](CCC(N)=O)C(=O)N[C@@H](CCCCN)C(=O)N[C@@H](Cc4c[nH]c5ccccc45)C(=O)N[C@@H](CCSC)C(=O)N[C@@H](Cc4cccc5ccccc45)C(=O)N[C@@H]([C@@H](C)O)C(=O)N3)NC2=O)C(=O)N[C@@H](CCCCN)C(=O)N[C@@H](CC(C)C)C(=O)N[C@@H](Cc2c[nH]c3ccccc23)C(=O)N1)[C@@H](C)CC)C(N)=O [compound 30] | 0.4 | 1420 | 0.9 | 2 |  |  |  |  |  | 
CC[C@H](C)[C@H](NC(=O)[C@@H](NC(=O)[C@H](CCCCN)NC(=O)[C@H](CCCNC(=N)N)NC(=O)[C@@H]1CSSC[C@@H]2NC(=O)[C@H](C)NC(=O)[C@H](CCCNC(=N)N)NC(=O)[C@H](CCCCN)NC(=O)[C@H](CO)NC(=O)[C@H](CC(=O)O)NC(=O)[C@@H]3CSSC[C@H](NC(=O)[C@H](CCCNC(=N)N)NC(=O)[C@H](CC(C)C)NC(=O)CNC(=O)[C@H](CCC(=O)O)NC(=O)[C@H](CSSC[C@H](NC(=O)[C@@H](N)CCC(=O)O)C(=O)N[C@@H](CCC(N)=O)C(=O)N[C@@H](CCCCN)C(=O)N[C@@H](Cc4c[nH]c5ccccc45)C(=O)N[C@@H](CCSC)C(=O)N[C@@H](Cc4c[nH]c5ccccc45)C(=O)N[C@@H]([C@@H](C)O)C(=O)N3)NC2=O)C(=O)N[C@@H](CCCCN)C(=O)N[C@@H](CC(C)C)C(=O)N[C@@H](Cc2c[nH]c3ccccc23)C(=O)N1)[C@@H](C)CC)C(N)=O [compound 49] | 0.3 | 6440 | 8 | 27 |  |  |  |  |  | 
CC[C@H](C)[C@H](NC(=O)[C@H](CCC(=O)O)NC(=O)[C@H](CCCCN)NC(=O)[C@H](CCCNC(=N)N)NC(=O)[C@@H]1CSSC[C@@H]2NC(=O)[C@H](C)NC(=O)[C@H](CCCNC(=N)N)NC(=O)[C@H](CCCCN)NC(=O)[C@H](CO)NC(=O)[C@H](CC(=O)O)NC(=O)[C@@H]3CSSC[C@H](NC(=O)[C@H](CCCNC(=N)N)NC(=O)[C@H](CC(C)C)NC(=O)CNC(=O)[C@H](CCC(=O)O)NC(=O)[C@H](CSSC[C@H](NC(=O)[C@@H](N)Cc4ccc(O)cc4)C(=O)N[C@@H](CCC(N)=O)C(=O)N[C@@H](CCCCN)C(=O)N[C@@H](Cc4c[nH]c5ccccc45)C(=O)N[C@@H](CCSC)C(=O)N[C@@H](Cc4c[nH]c5ccccc45)C(=O)N[C@@H]([C@@H](C)O)C(=O)N3)NC2=O)C(=O)N[C@@H](CCCCN)C(=O)N[C@@H](CC(C)C)C(=O)N[C@@H](Cc2c[nH]c3ccccc23)C(=O)N1)C(N)=O [compound 69] | 1 | 8800 | 300 | 300 | 8800 |  |  |  |  | 
C#CC[C@H](N)C(=O)N[C@@H](Cc1ccc(O)cc1)C(=O)N[C@H]1CSSC[C@@H]2NC(=O)[C@@H]3CSSC[C@@H](C(=O)N[C@@H](CCCNC(=N)N)C(=O)N[C@@H](CCCCN)C(=O)N[C@H](C(=O)N[C@H](C(N)=O)[C@@H](C)CC)[C@@H](C)CC)NC(=O)[C@H](Cc4c[nH]c5ccccc45)NC(=O)[C@H](CC(C)C)NC(=O)[C@H](CCCCN)NC(=O)[C@H](CSSC[C@H](NC(=O)[C@H]([C@@H](C)O)NC(=O)[C@H](Cc4c[nH]c5ccccc45)NC(=O)[C@H](CCCC)NC(=O)[C@H](Cc4c[nH]c5ccccc45)NC(=O)[C@H](CCCCN)NC(=O)[C@H](CCC(N)=O)NC1=O)C(=O)N[C@@H](CC(=O)O)C(=O)N[C@@H](CO)C(=O)N[C@@H](CCCCN)C(=O)N[C@@H](CCCNC(=N)N)C(=O)N[C@@H](C)C(=O)N3)NC(=O)[C@H](CCC(=O)O)NC(=O)[C@H](CC(C)C)NC(=O)CNC(=O)[C@H](CCC(=O)O)NC2=O [compound 297] |  |  |  |  |  | 1.87 | 1200 | 804 |  | 
C#CC[C@H](N)C(=O)N[C@@H](Cc1ccc(O)cc1)C(=O)N[C@H]1CSSC[C@@H]2NC(=O)[C@@H]3CSSC[C@@H](C(=O)N[C@@H](CCCNC(=N)N)C(=O)N[C@@H](CCCCN)C(=O)N[C@H](C(=O)N[C@@H](Cc4c[nH]c5ccccc45)C(N)=O)[C@@H](C)CC)NC(=O)[C@H](Cc4c[nH]c5ccccc45)NC(=O)[C@H](CC(C)C)NC(=O)[C@H](CCCCN)NC(=O)[C@H](CSSC[C@H](NC(=O)[C@H]([C@@H](C)O)NC(=O)[C@H](Cc4c[nH]c5ccccc45)NC(=O)[C@H](Cc4ccccc4)NC(=O)[C@H](Cc4c[nH]c5ccccc45)NC(=O)[C@H](CCCCN)NC(=O)[C@H](CCC(N)=O)NC1=O)C(=O)N[C@@H](CC(=O)O)C(=O)N[C@@H](CO)C(=O)N[C@@H](CCCCN)C(=O)N[C@@H](CCCNC(=N)N)C(=O)N[C@@H](C)C(=O)N3)NC(=O)[C@H](CCC(=O)O)NC(=O)[C@H](CC(C)C)NC(=O)CNC(=O)[C@H](CCC(=O)O)NC2=O [compound 298] |  |  |  |  |  | 15 | 780 | 661 | 52 | 44
C#CC[C@H](N)C(=O)N[C@@H](Cc1ccc(O)cc1)C(=O)N[C@H]1CSSC[C@@H]2NC(=O)[C@@H]3CSSC[C@@H](C(=O)N[C@@H](CCCNC(=N)N)C(=O)N[C@@H](CCCCN)C(=O)N[C@H](C(=O)N[C@@H](Cc4c[nH]c5ccccc45)C(N)=O)[C@@H](C)CC)NC(=O)[C@H](Cc4c[nH]c5ccccc45)NC(=O)[C@H](CC(C)C)NC(=O)[C@H](CCCCN)NC(=O)[C@H](CSSC[C@H](NC(=O)[C@H]([C@@H](C)O)NC(=O)[C@H](Cc4c[nH]c5ccccc45)NC(=O)[C@H](CC(C)C)NC(=O)[C@H](Cc4c[nH]c5ccccc45)NC(=O)[C@H](CCCCN)NC(=O)[C@H](CCC(N)=O)NC1=O)C(=O)N[C@@H](CC(=O)O)C(=O)N[C@@H](CO)C(=O)N[C@@H](CCCCN)C(=O)N[C@@H](CCCNC(=N)N)C(=O)N[C@@H](C)C(=O)N3)NC(=O)[C@H](CCC(=O)O)NC(=O)[C@H](CC(C)C)NC(=O)CNC(=O)[C@H](CCC(=O)O)NC2=O [compound 299] |  |  |  |  |  | 0.571 | 1330 | 1180 |  | 
C#CC[C@H](N)C(=O)N[C@@H](Cc1ccc(O)cc1)C(=O)N[C@H]1CSSC[C@@H]2NC(=O)[C@@H]3CSSC[C@@H](C(=O)N[C@@H](CCCNC(=N)N)C(=O)N[C@@H](CCCCN)C(=O)N[C@H](C(=O)N[C@@H](Cc4c[nH]c5ccccc45)C(N)=O)[C@@H](C)CC)NC(=O)[C@H](Cc4c[nH]c5ccccc45)NC(=O)[C@H](CC(C)C)NC(=O)[C@H](CCCCN)NC(=O)[C@H](CSSC[C@H](NC(=O)[C@H]([C@@H](C)O)NC(=O)[C@H](Cc4c[nH]c5ccccc45)NC(=O)[C@H](CCC)NC(=O)[C@H](Cc4c[nH]c5ccccc45)NC(=O)[C@H](CCCCN)NC(=O)[C@H](CCC(N)=O)NC1=O)C(=O)N[C@@H](CC(=O)O)C(=O)N[C@@H](CO)C(=O)N[C@@H](CCCCN)C(=O)N[C@@H](CCCNC(=N)N)C(=O)N[C@@H](C)C(=O)N3)NC(=O)[C@H](CCC(=O)O)NC(=O)[C@H](CC(C)C)NC(=O)CNC(=O)[C@H](CCC(=O)O)NC2=O [compound 300] |  |  |  |  |  | 0.818 | 5300 | 967 |  | 
CCCC[C@@H]1NC(=O)[C@H](Cc2c[nH]c3ccccc23)NC(=O)[C@H](CCCCN)NC(=O)[C@H](CCC(N)=O)NC(=O)[C@@H](NC(=O)[C@@H](N)CCCCN=[N+]=[N-])CSSC[C@@H]2NC(=O)[C@@H]3CSSC[C@@H](C(=O)N[C@@H](CCCNC(=N)N)C(=O)N[C@@H](CCCCN)C(=O)N[C@H](C(=O)N[C@@H](Cc4c[nH]c5ccccc45)C(N)=O)[C@@H](C)CC)NC(=O)[C@H](Cc4c[nH]c5ccccc45)NC(=O)[C@H](CC(C)C)NC(=O)[C@H](CCCCN)NC(=O)[C@H](CSSC[C@H](NC(=O)[C@H]([C@@H](C)O)NC(=O)[C@H](Cc4c[nH]c5ccccc45)NC1=O)C(=O)N[C@@H](CC(=O)O)C(=O)N[C@@H](CO)C(=O)N[C@@H](CCCCN)C(=O)N[C@@H](CCCNC(=N)N)C(=O)N[C@@H](C)C(=O)N3)NC(=O)[C@H](CCC(=O)O)NC(=O)[C@H](CC(C)C)NC(=O)CNC(=O)[C@H](CCC(=O)O)NC2=O [compound 304] |  |  |  |  |  | 3.86 | 2560 | 1740 |  | 
CCCC[C@@H]1NC(=O)[C@H](Cc2c[nH]c3ccccc23)NC(=O)[C@H](CCCCN)NC(=O)[C@H](CCC(N)=O)NC(=O)[C@@H](NC(=O)[C@@H](N)Cc2ccc(O)cc2)CSSC[C@@H]2NC(=O)[C@@H]3CSSC[C@@H](C(=O)N[C@@H](CCCNC(=N)N)C(=O)N[C@@H](CCCCN)C(=O)N[C@H](C(=O)N[C@@H](Cc4c[nH]c5ccccc45)C(N)=O)[C@@H](C)CC)NC(=O)[C@H](Cc4c[nH]c5ccccc45)NC(=O)[C@H](CC(C)C)NC(=O)[C@H](CCCCN)NC(=O)[C@H](CSSC[C@H](NC(=O)[C@H]([C@@H](C)O)NC(=O)[C@H](Cc4c[nH]c5ccccc45)NC1=O)C(=O)N[C@@H](CC(=O)O)C(=O)N[C@@H](CCCCN=[N+]=[N-])C(=O)N[C@@H](CCCCN)C(=O)N[C@@H](CCCNC(=N)N)C(=O)N[C@@H](C)C(=O)N3)NC(=O)[C@H](CCC(=O)O)NC(=O)[C@H](CC(C)C)NC(=O)CNC(=O)[C@H](CCC(=O)O)NC2=O [compound 305] |  |  |  |  |  | 435 |  |  | 0 | 0
